Reference: patent US6479435B1, “Diaryl ethers and processes for their preparation and herbicidal and desiccant compositions containing them” (ISK Americas Incorporated, priority 1997, dated 2002)

Assays:
Type in all cases: in vivo
[1] = system: field corn (Zea mays L., var. Dekalb 535, CORN); experiment: Post-emerge greenhouse test, crop damage rating; details: 14 days after application
Procedure, shortened: (§1)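 Plants at the 2-3 leaf stage, sown 8-21 days earlier, were track-sprayed post-emergence with compound in acetone plus 0.25% v/v non-ionic surfactant at 63-1000 g ai/ha (187 l/ha). Damage was rated at 14 days on a 0-100 scale (0 none, 100 all plants dead), for both crop injury and weed control.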

[2] = system: upland rice (Oryza sp., var.Tebonnet, RICE); experiment: Post-emerge greenhouse test, crop damage rating; details: 14 days after application
Procedure, shortened: as §1

[3] = system: large crabgrass (Digitaria sanguinalis, DIGSA); experiment: Pre-emerge greenhouse herbicide test, phytotoxicity rating; details: 14 days after application, rating scale 0-100
Procedure, shortened: (§2)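 Seeds sown in sandy loam one day before track-sprayer application of acetone solutions at 125–1000 g ai/ha (187 l/ha), then surface-watered to incorporate and bottom-watered. Injury scored visually at 14 days on a 0–100 scale (0 no damage, 100 complete death).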

[4] = system: velvetleaf (Abutilon theophrasti, ABUTH); experiment: as above; details: 14 days after application, rating scale 0-100
Procedure, shortened: as §2

[5] = system: Johnsongrass (Sorghum halepense, SORHA); experiment: as above; details: 14 days after application, rating scale 0-100
Procedure, shortened: as §2

[6] = system: sicklepod (Cassia obtusifolia, CASOB); experiment: as above; details: 14 days after application, rating scale 0-100
Procedure, shortened: as §2

[7] = system: lambsquarters (Chenopodium album, CHEAL); experiment: as above; details: 14 days after application, rating scale 0-100
Procedure, shortened: as §2

[8] = system: common ragweed (Ambrosia artemisiifolia L., AMBEL); experiment: as above; details: 14 days after application, rating scale 0-100
Procedure, shortened: as §2

[9] = system: ivyleaf morningglory (Ipomoea hederacea, IPOHE); experiment: as above; details: 14 days after application, rating scale 0-100
Procedure, shortened: as §2

[10] = system: green foxtail (Setaria viridis, SETVI); experiment: as above; details: 14 days after application, rating scale 0-100
Procedure, shortened: as §2

[11] = system: barnyardgrass (Echinochloa crusgalli, ECHCG); experiment: as above; details: 14 days after application, rating scale 0-100
Procedure, shortened: as §2

[12] = system: redroot pigweed (Amaranthus retroflexus, AMARE); experiment: as above; details: 14 days after application, rating scale 0-100
Procedure, shortened: as §2

[13] = system: soybean (Glycine max L., var. Pella 86, SOY); experiment: Post-emerge greenhouse test, crop damage rating; details: 14 days after application
Procedure, shortened: as §1

[14] = system: common ragweed (Ambrosia artemisiifolia L., AMBEL); experiment: Post-emerge greenhouse herbicide test, phytotoxicity rating; details: 14 days after application
Procedure, shortened: as §1

[15] = system: large crabgrass (Digitaria sanguinalis, DIGSA); experiment: as above; details: 14 days after application
Procedure, shortened: as §1

[16] = system: velvetleaf (Abutilon theophrasti, ABUTH); experiment: as above; details: 14 days after application
Procedure, shortened: as §1

[17] = system: Johnsongrass (Sorghum halepense, SORHA); experiment: as above; details: 14 days after application
Procedure, shortened: as §1

[18] = system: lambsquarters (Chenopodium album, CHEAL); experiment: as above; details: 14 days after application
Procedure, shortened: as §1

[19] = system: ivyleaf morningglory (Ipomoea hederacea, IPOHE); experiment: as above; details: 14 days after application
Procedure, shortened: as §1

[20] = system: green foxtail (Setaria viridis, SETVI); experiment: as above; details: 14 days after application
Procedure, shortened: as §1

[21] = system: barnyardgrass (Echinochloa crusgalli, ECHCG); experiment: as above; details: 14 days after application
Procedure, shortened: as §1

[22] = system: redroot pigweed (Amaranthus retroflexus, AMARE); experiment: as above; details: 14 days after application
Procedure, shortened: as §1

[23] = system: field corn (Zea mays L., var. Dekalb 535, CORN); experiment: Pre-emerge greenhouse test, crop damage rating; details: 14 days after application, rating scale 0-100
Procedure, shortened: as §2

[24] = system: upland rice (Oryza sp., var.Tebonnet, RICE); experiment: Pre-emerge greenhouse test, crop damage rating; details: 14 days after application, rating scale 0-100
Procedure, shortened: as §2

[25] = system: soybean (Glycine max L., var. Pella 86, SOY); experiment: Pre-emerge greenhouse test, crop damage rating; details: 14 days after application, rating scale 0-100
Procedure, shortened: as §2

Cn1nc(-c2cc(Oc3ncccc3C(F)(F)F)c(Cl)cc2F)c(Cl)c1C(F)(F)F [Compound 1-2]
CORN crop damage rating (0-100) ([1]; 63 g al/ha): 0 | CORN crop damage rating (0-100) ([1]; 500 g al/ha): 10 | RICE crop damage rating (0-100) ([2]; 63 g al/ha): 0 | RICE crop damage rating (0-100) ([2]; 500 g al/ha): 0 | phytotoxicity rating DIGSA ([3]; 125 g ai/ha): 40 | phytotoxicity rating DIGSA ([3]; 500 g ai/ha): 95 | phytotoxicity rating ABUTH ([4]; 125 g ai/ha): 0 | phytotoxicity rating ABUTH ([4]; 500 g ai/ha): 70 | phytotoxicity rating SORHA ([5]; 125 g ai/ha): 30 | phytotoxicity rating SORHA ([5]; 500 g ai/ha): 50 | phytotoxicity rating CASOB ([6]; 125 g ai/ha): 80 | phytotoxicity rating CASOB ([6]; 500 g ai/ha): 0 | phytotoxicity rating CHEAL ([7]; 125 g ai/ha): 50 | phytotoxicity rating CHEAL ([7]; 500 g ai/ha): 99 | phytotoxicity rating AMBEL ([8]; 125 g ai/ha): 80 | phytotoxicity rating AMBEL ([8]; 500 g ai/ha): 80 | phytotoxicity rating IPOHE ([9]; 125 g ai/ha): 0 | phytotoxicity rating IPOHE ([9]; 500 g ai/ha): 60 | phytotoxicity rating SETVI ([10]; 125 g ai/ha): 90 | phytotoxicity rating SETVI ([10]; 500 g ai/ha): 99 | phytotoxicity rating ECHCG ([11]; 125 g ai/ha): 20 | phytotoxicity rating ECHCG ([11]; 500 g ai/ha): 50 | phytotoxicity rating AMARE ([12]; 125 g ai/ha): 80 | phytotoxicity rating AMARE ([12]; 500 g ai/ha): 100 | SOY crop damage rating (0-100) ([13]; 63 g al/ha): 10 | SOY crop damage rating (0-100) ([13]; 500 g al/ha): 50 | AMBEL phytotoxicity rating (0-100) ([14]; 63 g al/ha): 30 | AMBEL phytotoxicity rating (0-100) ([14]; 500 g al/ha): 90 | DIGSA phytotoxicity rating (0-100) ([15]; 63 g al/ha): 0 | DIGSA phytotoxicity rating (0-100) ([15]; 500 g al/ha): 50 | ABUTH phytotoxicity rating (0-100) ([16]; 63 g al/ha): 30 | ABUTH phytotoxicity rating (0-100) ([16]; 500 g al/ha): 100 | SORHA phytotoxicity rating (0-100) ([17]; 63 g al/ha): 20 | SORHA phytotoxicity rating (0-100) ([17]; 500 g al/ha): 40 | CHEAL phytotoxicity rating (0-100) ([18]; 63 g al/ha): 70 | CHEAL phytotoxicity rating (0-100) ([18]; 500 g al/ha): 100 | IPOHE phytotoxicity rating (0-100) ([19]; 63 g al/ha): 30 | IPOHE phytotoxicity rating (0-100) ([19]; 500 g al/ha): 90 | SETVI phytotoxicity rating (0-100) ([20]; 63 g al/ha): 0 | SETVI phytotoxicity rating (0-100) ([20]; 500 g al/ha): 40 | ECHCG phytotoxicity rating (0-100) ([21]; 63 g al/ha): 0 | ECHCG phytotoxicity rating (0-100) ([21]; 500 g al/ha): 80 | AMARE phytotoxicity rating (0-100) ([22]; 63 g al/ha): 80 | AMARE phytotoxicity rating (0-100) ([22]; 500 g al/ha): 100 | crop damage rating CORN ([23]; 125 g ai/ha): 10 | crop damage rating CORN ([23]; 500 g ai/ha): 90 | crop damage rating RICE ([24]; 125 g ai/ha): 30 | crop damage rating RICE ([24]; 500 g ai/ha): 40 | crop damage rating SOY ([25]; 125 g ai/ha): 0 | crop damage rating SOY ([25]; 500 g ai/ha): 10

N#Cc1cccnc1Oc1cc(-n2nnn(CCCF)c2=O)c(Cl)cc1Cl [Compound 6-5]
CORN crop damage rating (0-100) ([1]; 63 g al/ha): 0 | CORN crop damage rating (0-100) ([1]; 500 g al/ha): 0 | RICE crop damage rating (0-100) ([2]; 63 g al/ha): 20 | RICE crop damage rating (0-100) ([2]; 500 g al/ha): 30 | phytotoxicity rating DIGSA ([3]; 125 g ai/ha): 30 | phytotoxicity rating DIGSA ([3]; 500 g ai/ha): 70 | phytotoxicity rating ABUTH ([4]; 125 g ai/ha): 0 | phytotoxicity rating ABUTH ([4]; 500 g ai/ha): 90 | phytotoxicity rating SORHA ([5]; 125 g ai/ha): 30 | phytotoxicity rating SORHA ([5]; 500 g ai/ha): 70 | phytotoxicity rating CASOB ([6]; 125 g ai/ha): 70 | phytotoxicity rating CASOB ([6]; 500 g ai/ha): 50 | phytotoxicity rating CHEAL ([7]; 125 g ai/ha): 90 | phytotoxicity rating CHEAL ([7]; 500 g ai/ha): 100 | phytotoxicity rating AMBEL ([8]; 125 g ai/ha): 0 | phytotoxicity rating AMBEL ([8]; 500 g ai/ha): 50 | phytotoxicity rating IPOHE ([9]; 125 g ai/ha): 40 | phytotoxicity rating IPOHE ([9]; 500 g ai/ha): 40 | phytotoxicity rating SETVI ([10]; 125 g ai/ha): 0 | phytotoxicity rating SETVI ([10]; 500 g ai/ha): 100 | phytotoxicity rating ECHCG ([11]; 125 g ai/ha): 0 | phytotoxicity rating ECHCG ([11]; 500 g ai/ha): 0 | phytotoxicity rating AMARE ([12]; 125 g ai/ha): 90 | phytotoxicity rating AMARE ([12]; 500 g ai/ha): 100 | SOY crop damage rating (0-100) ([13]; 63 g al/ha): 20 | SOY crop damage rating (0-100) ([13]; 500 g al/ha): 30 | AMBEL phytotoxicity rating (0-100) ([14]; 63 g al/ha): 0 | AMBEL phytotoxicity rating (0-100) ([14]; 500 g al/ha): 0 | DIGSA phytotoxicity rating (0-100) ([15]; 63 g al/ha): 0 | DIGSA phytotoxicity rating (0-100) ([15]; 500 g al/ha): 10 | ABUTH phytotoxicity rating (0-100) ([16]; 63 g al/ha): 0 | ABUTH phytotoxicity rating (0-100) ([16]; 500 g al/ha): 20 | SORHA phytotoxicity rating (0-100) ([17]; 63 g al/ha): 0 | SORHA phytotoxicity rating (0-100) ([17]; 500 g al/ha): 20 | CHEAL phytotoxicity rating (0-100) ([18]; 63 g al/ha): 20 | CHEAL phytotoxicity rating (0-100) ([18]; 500 g al/ha): 80 | IPOHE phytotoxicity rating (0-100) ([19]; 63 g al/ha): 0 | IPOHE phytotoxicity rating (0-100) ([19]; 500 g al/ha): 0 | SETVI phytotoxicity rating (0-100) ([20]; 63 g al/ha): 0 | SETVI phytotoxicity rating (0-100) ([20]; 500 g al/ha): 30 | ECHCG phytotoxicity rating (0-100) ([21]; 63 g al/ha): 0 | ECHCG phytotoxicity rating (0-100) ([21]; 500 g al/ha): 0 | AMARE phytotoxicity rating (0-100) ([22]; 63 g al/ha): 40 | AMARE phytotoxicity rating (0-100) ([22]; 500 g al/ha): 80 | crop damage rating CORN ([23]; 125 g ai/ha): 20 | crop damage rating CORN ([23]; 500 g ai/ha): 20 | crop damage rating RICE ([24]; 125 g ai/ha): 20 | crop damage rating RICE ([24]; 500 g ai/ha): 10 | crop damage rating SOY ([25]; 125 g ai/ha): 10 | crop damage rating SOY ([25]; 500 g ai/ha): 0
